Molecular target: Glutamate NMDA receptor; GRIN1/GRIN2A (Homo sapiens, UniProt Q05586+Q12879)
Assay: TBD: TBD
Format: protein-complex assay

Sequence of Glutamate NMDA receptor; GRIN1/GRIN2A (Q12879 whole entry, other chains not shown): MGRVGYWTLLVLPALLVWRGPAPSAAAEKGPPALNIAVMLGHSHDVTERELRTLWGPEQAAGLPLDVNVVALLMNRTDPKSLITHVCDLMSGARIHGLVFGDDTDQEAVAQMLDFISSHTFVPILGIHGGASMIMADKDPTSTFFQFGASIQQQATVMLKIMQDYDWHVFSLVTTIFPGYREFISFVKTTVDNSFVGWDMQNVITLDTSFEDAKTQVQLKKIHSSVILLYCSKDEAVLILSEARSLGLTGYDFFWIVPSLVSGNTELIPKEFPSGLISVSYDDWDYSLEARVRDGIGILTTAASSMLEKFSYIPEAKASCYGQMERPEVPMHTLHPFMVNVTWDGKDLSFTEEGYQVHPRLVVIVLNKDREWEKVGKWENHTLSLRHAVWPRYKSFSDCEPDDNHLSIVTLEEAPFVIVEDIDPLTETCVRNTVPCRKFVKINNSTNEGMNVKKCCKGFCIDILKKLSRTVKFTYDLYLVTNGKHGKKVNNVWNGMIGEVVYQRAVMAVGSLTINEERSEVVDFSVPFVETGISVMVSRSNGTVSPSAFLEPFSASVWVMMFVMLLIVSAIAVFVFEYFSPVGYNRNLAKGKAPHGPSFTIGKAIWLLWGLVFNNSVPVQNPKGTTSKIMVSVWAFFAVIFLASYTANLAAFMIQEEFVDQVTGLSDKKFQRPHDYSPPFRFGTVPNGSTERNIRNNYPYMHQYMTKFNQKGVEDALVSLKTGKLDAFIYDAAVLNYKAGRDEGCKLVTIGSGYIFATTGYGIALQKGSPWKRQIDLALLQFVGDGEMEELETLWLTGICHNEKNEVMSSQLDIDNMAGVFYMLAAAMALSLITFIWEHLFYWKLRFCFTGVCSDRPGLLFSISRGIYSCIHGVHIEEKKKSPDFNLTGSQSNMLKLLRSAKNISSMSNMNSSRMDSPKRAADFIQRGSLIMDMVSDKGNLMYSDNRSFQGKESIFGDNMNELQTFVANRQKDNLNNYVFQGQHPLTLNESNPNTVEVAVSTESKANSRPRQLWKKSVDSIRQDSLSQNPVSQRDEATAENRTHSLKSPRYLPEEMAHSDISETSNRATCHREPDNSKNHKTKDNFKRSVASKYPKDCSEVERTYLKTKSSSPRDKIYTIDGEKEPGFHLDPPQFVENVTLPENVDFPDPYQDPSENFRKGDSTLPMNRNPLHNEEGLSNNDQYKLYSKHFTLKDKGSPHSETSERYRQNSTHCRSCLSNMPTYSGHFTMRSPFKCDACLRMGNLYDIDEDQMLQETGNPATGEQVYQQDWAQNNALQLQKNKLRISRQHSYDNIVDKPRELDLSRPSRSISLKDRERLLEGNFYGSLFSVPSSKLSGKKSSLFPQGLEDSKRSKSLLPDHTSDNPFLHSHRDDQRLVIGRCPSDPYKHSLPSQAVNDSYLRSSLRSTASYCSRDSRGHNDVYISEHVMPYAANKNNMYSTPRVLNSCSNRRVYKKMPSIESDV

Structure (SMILES): CCN(Cc1cc(=O)n2c(OC)cccc2n1)c1ccc(F)cc1
- EC50: 4.4 µM

Reference: ChEMBL document CHEMBL5726897, “Pyridopyrimidinones and methods of use thereof” (2019)
